The record followed here is ChEMBL document CHEMBL5226341, “Discovery of a Potent FLT3 Inhibitor (LT-850-166) with the Capacity of Overcoming a Variety of FLT3 Mutations” (J Med Chem, 2021).

Assay [1] relates to MV4-11. Briefly: Antiproliferative activity against human MV4-11 cells assessed as inhibition of cell growth incubated for 72 hrs by CellTiterGlo luminescent assay. It counts as functional, cell-based. Conditions: MV4-11, 72 h. In general terms: In ATP-based viability assays light output follows the ATP content of the culture.
The test system of assay [2] is BaF3. Briefly: Antiproliferative activity against mouse BaF3 cells harboring FLT3-ITD-F691L mutant assessed as residual cell viability at 10 nM incubated for 72 hrs by CellTiterGlo luminescent assay. The assay is classed as functional.
For assay [3], the target named is Receptor-type tyrosine-protein kinase FLT3 (Homo sapiens, UniProt P36888, ITD). Briefly: Inhibition of human FLT3-ITD mutant preincubated with enzyme for 20 mins followed by [gamma-33P]ATP addition and measured after 120 mins by filter binding method.
Receptor-type tyrosine-protein kinase FLT3, sequence (P36888 whole entry, looked up, stated change not applied): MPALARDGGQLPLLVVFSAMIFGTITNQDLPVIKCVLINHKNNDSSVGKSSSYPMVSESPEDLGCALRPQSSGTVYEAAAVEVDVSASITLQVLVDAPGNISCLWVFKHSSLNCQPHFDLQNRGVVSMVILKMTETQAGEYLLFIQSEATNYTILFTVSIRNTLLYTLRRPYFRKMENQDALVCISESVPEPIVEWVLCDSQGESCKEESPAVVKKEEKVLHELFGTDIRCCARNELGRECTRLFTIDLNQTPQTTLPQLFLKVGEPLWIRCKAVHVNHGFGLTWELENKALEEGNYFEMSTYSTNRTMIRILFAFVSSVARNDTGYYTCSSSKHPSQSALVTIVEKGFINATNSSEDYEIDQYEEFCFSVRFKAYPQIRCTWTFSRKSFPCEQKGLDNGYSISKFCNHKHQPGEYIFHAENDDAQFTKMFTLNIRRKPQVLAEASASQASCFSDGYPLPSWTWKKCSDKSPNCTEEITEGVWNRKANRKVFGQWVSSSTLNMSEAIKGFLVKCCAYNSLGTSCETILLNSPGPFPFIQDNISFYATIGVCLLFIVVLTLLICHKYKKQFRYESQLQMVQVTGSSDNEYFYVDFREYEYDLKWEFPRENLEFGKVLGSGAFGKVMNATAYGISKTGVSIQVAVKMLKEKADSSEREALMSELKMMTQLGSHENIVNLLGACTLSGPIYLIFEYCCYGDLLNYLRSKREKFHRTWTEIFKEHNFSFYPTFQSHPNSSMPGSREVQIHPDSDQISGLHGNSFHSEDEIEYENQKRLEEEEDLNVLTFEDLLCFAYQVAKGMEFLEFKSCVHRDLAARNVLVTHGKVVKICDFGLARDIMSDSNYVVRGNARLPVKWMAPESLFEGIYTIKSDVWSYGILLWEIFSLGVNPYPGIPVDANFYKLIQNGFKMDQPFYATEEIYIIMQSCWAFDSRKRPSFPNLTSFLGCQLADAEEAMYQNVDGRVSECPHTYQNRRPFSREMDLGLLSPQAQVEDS

On to `CC(=O)N1CCN(c2ccc(C(=O)Nc3cc(-c4ccc5ncn(Cc6c(Cl)cccc6Cl)c5c4)[nH]n3)cc2)CC1`, for which the IC50 in assay [1] amounted to 1.1 nM. In assay [2], the Activity is 103.45%.

Take `CN1CCC(Nc2ccc(C(=O)Nc3cc(-c4ccc5ncn([C@H]6CC[C@H](N)CC6)c5c4)[nH]n3)cc2)CC1`: in assay [3], the IC50 amounted to 3.88 nM.

With `O=C(Nc1cc(-c2ccc3ncn(Cc4c(Cl)cccc4Cl)c3c2)[nH]n1)c1ccc(N2CCOCC2)cc1`, the IC50 in assay [1] is 3.61 nM. The Activity in assay [2] was found to be 109.68%.

For `O=C(Nc1cc(-c2ccc3ncn(Cc4c(Cl)cccc4Cl)c3c2)[nH]n1)c1ccc(N2CC3CC2CN3)cc1` (stereo not given), in assay [1], the half-inhibitory concentration (IC50) was found to be 2.26 nM. In assay [2], the Activity was found to be 103.48%.

In the case of `CN1CCC(Nc2ccc(C(=O)Nc3cc(-c4cccc5c4ncn5C)[nH]n3)cc2)CC1`, the concentration for half-maximal inhibition (IC50) in assay [3] came out at 23.7 nM.

With `CN1CCC(Nc2ccc(C(=O)Nc3cc(-c4ccc5ncn(C)c5c4)[nH]n3)cc2)CC1`, the IC50 in assay [3] came to 7.59 nM.

Take `CCN1CCN(c2ccc(C(=O)Nc3cc(-c4ccc5ncn(Cc6c(Cl)cccc6Cl)c5c4)[nH]n3)cn2)CC1`: the IC50 in assay [1] is 3.25 nM. Moreover, the Activity in assay [2] was found to be 102.56%.

With `CN1CCC(Nc2ccc(C(=O)Nc3cc(-c4ccc5ncccc5c4)[nH]n3)cc2)CC1`, in assay [3], the IC50 came to 10.3 nM.

`CN1CCC(Nc2ccc(C(=O)Nc3cc(-c4ccc5ncn(-c6ccccc6)c5c4)[nH]n3)cc2)CC1` displayed an IC50 in assay [3] of 4.96 nM.

Consider `CN1CCC(Nc2ccc(C(=O)Nc3cc(-c4ccc5ccn(Cc6ccccc6)c5c4)[nH]n3)cc2)CC1`, for which the IC50 in assay [3] is 2.06 nM; in assay [1] it was 75.6 nM.

On to `CCN1CCN(c2ncc(C(=O)Nc3cc(-c4ccc5ncn(Cc6c(Cl)cccc6Cl)c5c4)[nH]n3)cn2)CC1`, for which the IC50 in assay [1] came out at 12.6 nM. In assay [2], the Activity came out at 111.76%.

In the case of `CN1CCC(Nc2ccc(C(=O)Nc3cc(-c4ccc5nccnc5c4)[nH]n3)cc2)CC1`, in assay [3], the IC50 is 14.1 nM.

On to `CN1CCC(C(=O)Nc2cc(-c3ccc4ncn(Cc5ccccc5)c4c3)[nH]n2)CC1`, for which the IC50 in assay [3] is 397 nM; in assay [1], 1700 nM.

Take `CN1CCN(c2ccc(C(=O)Nc3cc(-c4ccc5ncn(Cc6c(Cl)cccc6Cl)c5c4)[nH]n3)cc2)CC1=O`: the IC50 in assay [1] worked out at 2.64 nM. Further, the Activity in assay [2] is on record as 104.57%.

With `CN1CCC(Nc2ccc(C(=O)Nc3cc(-c4ccc5ncn(C6CCOCC6)c5c4)[nH]n3)cc2)CC1`, in assay [3], the IC50 turned out to be 5.73 nM.

On to `COCCNc1ccc(C(=O)Nc2cc(-c3ccc4ncn(Cc5c(Cl)cccc5Cl)c4c3)[nH]n2)cc1`, for which the IC50 in assay [1] stood at 6.37 nM. Besides, the Activity in assay [2] came to 84.97%.

As to `Cc1cc(NC2CCN(C)CC2)ccc1C(=O)Nc1cc(-c2ccc3ncn(Cc4ccccc4)c3c2)[nH]n1`, the IC50 in assay [3] was 9.06 nM; in assay [1], 86.2 nM.

`CN1CCC(Nc2ccc(C(=O)Nc3cc(-c4ccc5ncn(Cc6c(Cl)cccc6Cl)c5c4)[nH]n3)cc2)CC1`: in assay [1], the IC50 stood at 0.77 nM. Further, the Activity in assay [2] came out at 104.29%.

With `CC(C)n1cnc2ccc(-c3cc(NC(=O)c4ccc(NC5CCN(C)CC5)cc4)n[nH]3)cc21`, in assay [3], the concentration for half-maximal inhibition (IC50) came to 7.65 nM.

For `CN1CCC(Nc2ccc(C(=O)Nc3cc(-c4cccc5ncn(C)c45)[nH]n3)cc2)CC1`, in assay [3], the half-maximal inhibitory concentration (IC50) came out at 213 nM.

In the case of `CN1CCC(Nc2ccc(C(=O)Nc3cc(-c4ccc5ncn(Cc6ccncc6)c5c4)[nH]n3)cc2)CC1`, the IC50 in assay [3] stood at 16 nM.

Regarding `CN1CCC(Nc2ccc(C(=O)Nc3cc(-c4ccc5ncn(Cc6ccccc6)c5c4)[nH]n3)c(F)c2)CC1`, the 50% inhibitory concentration (IC50) was found to be 11.1 nM in assay [3] and 99.3 nM in assay [1].

Regarding `CN1CCC(Nc2ccc(C(=O)Nc3cc(-c4ccc5c(c4)ncn5Cc4ccccc4)[nH]n3)cc2)CC1`, the 50% inhibitory concentration (IC50) in assay [3] was found to be 4.96 nM; in assay [1] it was 58.4 nM.

As to `CN1CCC(Nc2ccc(C(=O)Nc3cc(-c4ccc5ncn(C6CC6)c5c4)[nH]n3)cc2)CC1`, in assay [3], the IC50 was determined as 3.58 nM.

Take `CN1CCC(Nc2ccc(C(=O)Nc3cc(-c4ccc5ncn(CC6CCCCC6)c5c4)[nH]n3)cc2)CC1`: the IC50 in assay [3] worked out at 3.86 nM.

On to `O=C(Nc1cc(-c2ccc3ncn(Cc4ccccc4)c3c2)[nH]n1)c1ccccc1`, for which the IC50 amounted to 12.9 nM in assay [3] and 219 nM in assay [1].

In general, IC50 refers to the concentration that gives 50% inhibition.
